Test results reported in patent US20140065615A1, “The KRAS Variant and Tumor Biology” (YALE UNIVERSITY, priority 2011, published 2014).

Columns and labels:
Format in all cases: cell-based
[1] = system: BG1 (KRAS variant/BRCA wild-type cell line); test: CellTiter-Blue chemosensitivity / cell viability assay, BG1; conditions: KRAS-variant line BG1 vs non-variant CAOV3
Experimental: (§1) The activity of drugs alone or in combination was determined by a high-through-put CellTiter-Blue cell viability assay. For these assays, 1.2×10^3 cells were plated in each well of 384-well plates using a Precision XS liquid handling station (Bio-Tek Instruments Inc., Winooski, Vt., USA) and allowed to attach overnight with incubation at 37° C., 5% CO2. Using the liquid handling station, all drugs were serially diluted 2:3 or 1:2 in media, and 5 μl of these dilutions were added to appropriate wells at indicated times. Four replicate wells were used for each drug concentration and an additional four control wells received a diluent control without drug. At the end of the incubation period with drugs, 5 μl CellTiter-Blue reagent (Promega Corp., Madison, Wis., USA) was added to each well. Cell viability was assessed by the ability of the remaining viable cells to bioreduce resazurin to resorufin. The fluorescence of resorufin (579 nm Ex/584 nm Em) was measured using a Synergy 4 microplate reader (Bio-Tek Instruments Inc.). […] IC50s were determined using a sigmoidal equilibrium model regression using XLfit version 5.2 (ID Business Solutions Ltd). The IC50 was defined as the concentration Of drug required for a 50% reduction in growth/viability. All experiments were carried out a minimum of three times.
For example, a cell line that is KRAS variant positive/BRCA wild-type (BG1), a non-variant/BRCA wild-type cell line (CAOV3) and a cell line KRAS-variant positive/BRCA1 mutant (IGR-OV1) were tested.

[2] = system: IGR-OV1 (KRAS-variant/BRCA1 mutant cell line); test: CellTiter-Blue chemosensitivity / cell viability assay, IGR-OV1; conditions: KRAS variant and deleterious BRCA1 mutation line vs CAOV3
Experimental: as §1, with “three times. […]” for “three times.”

[3] = system: wild-type 3′UTR reporter (KRAS); test: Luciferase reporter expression after irinotecan exposure, wild-type 3′UTR reporter
Excerpt: (§2) The disclosure provides a method of predicting the response of a cancer cell to the combination of a chemotherapy and monoclonal antibody therapy, including detecting a mutation in let-7 complementary site LCS6 of human KRAS in a patient sample, wherein the mutation is a SNP comprising a uracil (U) or thymine (T) to guanine (G) transition at position 4 of LCS6, and wherein the presence of the mutation indicates a resistance to the combination. In certain embodiments of this method, the cancer cell is a colorectal cancer (CRC) cell. The cancer cell may be evaluated in vitro or ex vivo. […] The chemotherapy may be a cytotoxic agent. A non-limiting example of the cytotoxic agent is irinotecan.

[4] = system: KRAS-variant 3′UTR reporter; test: Luciferase reporter expression after irinotecan exposure, KRAS-variant 3′UTR reporter
Excerpt: as §2

Structure (SMILES)	resistance of BG1 compared with CAOV3 [1]	resistance of IGROV1 compared with CAOV3 [2]	reporter expression following irinotecan exposure [3]	reporter expression following irinotecan exposure [4]
CC[C@@]1(O)C(=O)OCc2c1cc1n(c2=O)Cc2cc3c(CN(C)C)c(O)ccc3nc2-1 [Topotecan, topotecan]	significantly resistant			
Nc1ccn([C@@H]2O[C@H](CO)[C@@H](O)C2(F)F)c(=O)n1 [Gemcitabine, gemcitabine]	significantly resistant			
N.N.O=C([O-])C1(C(=O)[O-])CCC1.[Pt+2] [carboplatin]	statistically significantly resistant	not resistant		
COc1cccc2c1C(=O)c1c(O)c3c(c(O)c1C2=O)C[C@@](O)(C(=O)CO)C[C@@H]3O[C@H]1C[C@H](N)[C@H](O)[C@H](C)O1 [Doxorubicin, doxorubicin]	significantly resistant			
CCc1c2c(nc3ccc(OC(=O)N4CCC(N5CCCCC5)CC4)cc13)-c1cc3c(c(=O)n1C2)COC(=O)[C@]3(O)CC [irinotecan]			no change	statistically-significant increase
